Source: PMC5923478 (Viruses, 2018)
Where two headings read alike, the source gives them in different places.

What was measured:
[1] = system: ZIKV surface E antigen expression; assay type: cell-based, Zika virus
[2] = system: WNV viral surface E antigen expression; assay type: cell-based, West Nile virus
[3] = system: ZIKV, WNV and TBEV; assay: organism not typed; assay type: cell-based
[4] = system: Vero cells; settings: African green monkey; human
[5] = system: ZIKV
[6] = system: WNV
[7] = system: TBEV
[8] = system: Chikungunya virus; settings: Vero cells or primary human fibroblasts; cited from earlier work
[9] = system: Crimean-Congo hemorrhagic fever virus; settings: cited from earlier work
[10] = system: HCV; set-up: method as in ref 11 = [11]; settings: Huh 7.5.1 cells, 15 µM, 24 h to 48 h; cited from earlier work
[11] = in vitro; settings: African green monkey
[12] = in vitro; settings: pig
[13] = in vitro
[14] = system: ZIKV; assay: microbe, parasite or virus in culture; settings: Zika virus, Vero, 48 h
[15] = system: WNV; assay: microbe, parasite or virus in culture; settings: West Nile virus, Vero, 48 h
[16] = system: TBEV; assay: microbe, parasite or virus in culture; settings: Tick-borne encephalitis virus, Vero, 48 h
[17] = system: ZIKV; set-up: method as in ref 24 = [24]; settings: depending on the cultivated cells used; cited from earlier work

In the case of `CCOC(=O)c1c(CSc2ccccc2)n(C)c2cc(Br)c(O)c(CN(C)C)c12.Cl.O` [arbidol, ethyl-6-bromo-4-[(dimethylamino)methyl]-5-hydroxy-1-methyl-2-[(phenylthio)methyl]-indole-3-carboxylate hydrochloride monohydrate], the “ZIKV surface E antigen expression (immunofluorescence staining)” value [1] is reported as “dose-dependent inhibition”, the “WNV viral surface E antigen expression” value [2] is reported as “dose-dependent inhibition” and the “antiviral effects in virus infected cells” value [3] is reported as “no antiviral effects”. The “viral titer in growth curves” value [3] was “rapid reduction of viral titer”, the EC50 ([3]; Vero, read-out: EC50 values, range over ZIKV, WNV and TBEV) was 10.6 to 19.2 µM and the “cytotoxicity in Vero cells lower than in Huh-7 cells” value [4] was “about 5 times”. For the same molecule, the EC50 [5] was 10.6 ± 0.74 µM, the ZIKV replication [5] was “not inhibited” and the ZIKV viral replication [5] was “inhibited completely”. The “reduction in ZIKV titer compared to mock-treated cells” value [5] was “about 10^4 fold”, the EC50 [6] was 19.2 ± 0.29 µM and the “antiviral effects against WNV” value [6] was “little or no antiviral effects”. For the same molecule, the “SI (CC50/EC50)” value [7] was 4.81, the “TBEV viral titer reduction compared with non-treated cells” value [7] was 10^3 fold and the “inhibition of TBEV replication” value [7] was “incomplete”. For the same molecule, the EC50 [8] was under 10 µg/mL, the EC50 [9] was 2.8 µg/mL and the “inhibition of HCV replication” value [10] was “up to 10^3 fold”. The CC50 [11] was 89.72 ± 0.19 µM, the CC50 [12] was 46.8 ± 1.65 µM and the CC50 [13] was 18.7 to 89.7 µM. The CC50 ([13]; pig (PS), human (UKF-NB-4, HBCA)) was 24.8 to 47 µM, the EC50 [14] was 12.1 ± 0.77 µM and the EC50 [15] was 18.8 ± 0.21 µM. For the same molecule, the EC50 [16] was 18.67 ± 0.15 µM.
In the case of `CC(C)OC(=O)[C@H](C)N[P@](=O)(OC[C@H]1O[C@@H](n2ccc(=O)[nH]c2=O)[C@](C)(F)[C@@H]1O)Oc1ccccc1` [sofosbuvir], the “activity against ZIKV infection” value [17] is given as “differentially active”.
